5 compounds from patent publication US4420484A, “Basic amino or ammonium antimicrobial agent-polyethylene glycol ester surfactant-betaine and/or amine oxide surfactant compositions and method of use therof” (Sterling Drug Inc., priority 1981, dated 1983) can be followed below.

In the experiment the test system is Staphylococcus aureus ATCC 6538. Nature of the experiment: Compatibility with prototype vehicle, serial dilution test (MIC). The format is cell-based. Particulars: Id expressed as free base, IVa-IVc expressed as cation, 16-18 h, 37° C. As for the experimental part:
Compatability of the antimicrobial agents of Formula Id, Formula IIa, Formula IVa (A=Br), Formula IVb (A=Br) and Formula IVc (A=Br) with a prototype vehicle of the invention was tested by a serial dilution test against Staphylococcus aureus ATCC 6538. Volumes of two milliliters were used. Dilutions were in tryptose-phosphate broth. Incubation was for 16-18 hours at 37° C. Growth was verified with 2,3,5-triphenyltetrazoliumchloride. The inoculum was 1.8×10^5 viable cells per tube. There follows the formula of the prototype vehicle. […]

Regarding `CCCCCCCCCCCCCC[N+](C)(C)Cc1ccccc1` [Compound of Formula IIa, benzalkonium chloride, reference compound], the “Minimum Inhibitory Concentration (MIC)” value is, setting by setting: (added vehicle 0 μg/ml) 0.5 µg/mL; (added vehicle 15.6 μg/ml) 0.5 µg/mL; (added vehicle 31.2 μg/ml) 0.5 µg/mL; (added vehicle 62.5 μg/ml) 0.5 µg/mL; (added vehicle 125.0 μg/ml) 0.5 µg/mL; (added vehicle 250.0 μg/ml) 0.5 µg/mL. In addition, the “Minimum Inhibitory Concentration (MIC)” value is 0.5 µg/mL (added vehicle 500.0 μg/ml); 1.0 µg/mL (added vehicle 1000.0 μg/ml); 1.0 µg/mL (added vehicle 2000.0 μg/ml); 1.95 µg/mL (added vehicle 4000.0 μg/ml); 1.95 µg/mL (added vehicle 8000.0 μg/ml).

As to `CCCCCCCN=c1ccn(CCCCCCCCCCCCn2ccc(=NCCCCCCC)cc2)cc1` [Compound of Formula IVa], the “Minimum Inhibitory Concentration (MIC)” value was determined as 0.39 µg/mL (added vehicle 0 μg/ml); 0.195 µg/mL (added vehicle 15.6 μg/ml); 0.39 µg/mL (added vehicle 31.2 μg/ml); 0.39 µg/mL (added vehicle 62.5 μg/ml); 0.10 µg/mL (added vehicle 125.0 μg/ml); 0.10 µg/mL (added vehicle 250.0 μg/ml). Moreover, the “Minimum Inhibitory Concentration (MIC)” value (added vehicle 500.0 μg/ml) came to 0.10 µg/mL; the “Minimum Inhibitory Concentration (MIC)” value (added vehicle 1000.0 μg/ml) turned out to be 0.195 µg/mL; the “Minimum Inhibitory Concentration (MIC)” value (added vehicle 2000.0 μg/ml) worked out at 0.10 µg/mL; the “Minimum Inhibitory Concentration (MIC)” value (added vehicle 4000.0 μg/ml) is 0.195 µg/mL; the “Minimum Inhibitory Concentration (MIC)” value (added vehicle 8000.0 μg/ml) was 0.10 µg/mL.

Regarding `CCCCCCCCN=c1ccn(CCCCCCCCCCn2ccc(=NCCCCCCCC)cc2)cc1` [Compound of Formula IVb], the “Minimum Inhibitory Concentration (MIC)” value worked out at 0.5 µg/mL (added vehicle 0 μg/ml); 0.5 µg/mL (added vehicle 15.6 μg/ml); 0.5 µg/mL (added vehicle 31.2 μg/ml); 0.5 µg/mL (added vehicle 62.5 μg/ml); 0.5 µg/mL (added vehicle 125.0 μg/ml); 0.25 µg/mL (added vehicle 250.0 μg/ml). Besides, the “Minimum Inhibitory Concentration (MIC)” value came out at 0.125 µg/mL (added vehicle 500.0 μg/ml); 0.125 µg/mL (added vehicle 1000.0 μg/ml); 0.125 µg/mL (added vehicle 2000.0 μg/ml); 0.25 µg/mL (added vehicle 4000.0 μg/ml); 0.25 µg/mL (added vehicle 8000.0 μg/ml).

As to `CCCCC(CC)CN=c1ccn(CCCCCCCCCCCCn2ccc(=NCC(CC)CCCC)cc2)cc1` (stereo not shown) [Compound of Formula IVc], the “Minimum Inhibitory Concentration (MIC)” value is, setting by setting: (added vehicle 0 μg/ml) 0.25 µg/mL; (added vehicle 15.6 μg/ml) 0.25 µg/mL; (added vehicle 31.2 μg/ml) 0.25 µg/mL; (added vehicle 62.5 μg/ml) 0.25 µg/mL; (added vehicle 125.0 μg/ml) 0.125 µg/mL; (added vehicle 250.0 μg/ml) 0.0625 µg/mL. The “Minimum Inhibitory Concentration (MIC)” value is 0.125 µg/mL (added vehicle 500.0 μg/ml); 0.125 µg/mL (added vehicle 1000.0 μg/ml); 0.125 µg/mL (added vehicle 2000.0 μg/ml); 0.25 µg/mL (added vehicle 4000.0 μg/ml); 0.25 µg/mL (added vehicle 8000.0 μg/ml).

With `CCCCCCCNC(=N)NC(=N)NCCCCCCNC(=N)NC(=N)NCCCCCCC` [Compound of Formula Id], the “Minimum Inhibitory Concentration (MIC)” value reads like this: (added vehicle 0 μg/ml) 0.25 µg/mL; (added vehicle 15.6 μg/ml) 0.25 µg/mL; (added vehicle 31.2 μg/ml) 0.25 µg/mL; (added vehicle 62.5 μg/ml) 0.25 µg/mL; (added vehicle 125.0 μg/ml) 0.25 µg/mL; (added vehicle 250.0 μg/ml) 0.25 µg/mL. Further, the “Minimum Inhibitory Concentration (MIC)” value was 0.25 µg/mL (added vehicle 500.0 μg/ml); 0.25 µg/mL (added vehicle 1000.0 μg/ml); 0.50 µg/mL (added vehicle 2000.0 μg/ml); 0.50 µg/mL (added vehicle 4000.0 μg/ml); 0.50 µg/mL (added vehicle 8000.0 μg/ml).
